# Laboratory results published in US20240246964A1 (Arbutus Biopharma Corporation, priority 2021, published 2024).
# Target: human PD-L1 (Homo sapiens (Human), UniProt Q9NZQ7)
# Experiment: T cell activation luciferase reporter cell culture system (T Cell Activation Assay)
# Assay type: cell-based
# Conditions: luciferase reporter assay; PD-L1 aAPC/CHO-K1 cells with PD-1 effector Jurkat T cells
# human PD-L1, sequence (Q9NZQ7 19-290): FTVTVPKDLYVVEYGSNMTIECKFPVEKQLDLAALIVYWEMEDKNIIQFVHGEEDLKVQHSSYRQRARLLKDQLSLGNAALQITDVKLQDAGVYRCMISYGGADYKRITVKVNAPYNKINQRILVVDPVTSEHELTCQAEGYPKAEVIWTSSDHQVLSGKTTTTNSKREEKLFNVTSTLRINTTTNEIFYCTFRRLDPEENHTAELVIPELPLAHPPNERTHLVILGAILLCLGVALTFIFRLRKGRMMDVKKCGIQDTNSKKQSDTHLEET
row,SMILES,EC50 [nM]
1,"COc1nc(-c2cccc(-c3ccnc(-c4cc(OC)c5nc(CNCCC6(C(=O)O)CC6)nn5c4)c3Cl)c2Cl)ccc1CNC[C@@H]1CCC(=O)N1 [Example 262, (S)-1-(2-(((6-(3-Chloro-4-(2-chloro-3-(6-methoxy-5-((((5-oxopyrrolidin-2-yl)methyl)amino)methyl)pyridin-2-yl)phenyl)pyridin-2-yl)-8-methoxy-[1,2,4]triazolo[1,5-a]pyridin-2-yl)methyl)amino)ethyl)cyclopropane-1-carboxylic acid]",82.8
2,"COc1cc(-c2nccc(-c3cccc(-c4ccc5c(CN(C)C6CCN(C(C)=O)CC6)cn(C)c5n4)c3Cl)c2Cl)ccc1CNC1CCN(C(C)=O)CC1 [Example 264, 1-(4-((4-(4-(3-(3-(((1-acetylpiperidin-4-yl)(methyl)amino)methyl)-1-methyl-1H-pyrrolo[2,3-b]pyridin-6-yl)-2-chlorophenyl)-3-chloropyridin-2-yl)-2-methoxybenzyl)amino)piperidin-1-yl)ethan-1-one]",47.7
3,"COc1nc(-c2cccc(-c3ccnc(-c4ccc5c(c4)CCC[C@H]5NC[C@@H]4CCC(=O)N4)c3Cl)c2Cl)ccc1CN[C@@H](CCO)C(=O)O [Example 265, ((6-(2-Chloro-3-(3-chloro-2-((R)-5-((((S)-5-oxopyrrolidin-2-yl)methyl)amino)-5,6,7,8-tetrahydronaphthalen-2-yl)pyridin-4-yl)phenyl)-2-methoxypyridin-3-yl)methyl)-L-homoserine]",368
4,"COc1cc(-c2nccc(-c3cccc4c3CC[C@@H]4Oc3nc(OC)c(CNC[C@H](C)O)cc3C(F)(F)F)c2Cl)ccc1CNC[C@H](C)O [Example 270, (S)-1-(((6-(((S)-4-(3-Chloro-2-(4-((((S)-2-hydroxypropyl)amino)methyl)-3-methoxyphenyl)pyridin-4-yl)-2,3-dihydro-1H-inden-1-yl)oxy)-2-methoxy-5-(trifluoromethyl)pyridin-3-yl)methyl)amino)propan-2-ol]",85.5
5,"COc1cc(-c2nccc(-c3cccc(-c4ccc(CNC5CCN(C(C)=O)CC5)c(OC)n4)c3Cl)c2C)ccc1CNC1CCN(C(C)=O)CC1 [Example 271, 1-(4-(((6-(3-(2-(4-(((1-Acetylpiperidin-4-yl)amino)methyl)-3-methoxyphenyl)-3-methylpyridin-4-yl)-2-chlorophenyl)-2-methoxypyridin-3-yl)methyl)amino)piperidin-1-yl)ethan-1-one]",183
6,"COC(=O)CCN1CCc2cc(-c3nccc(-c4cccc(-c5ccc(CNC[C@H](C)O)c(OC)n5)c4Cl)c3Cl)cc(OC)c2C1 [Example 272, Methyl (S)-3-(6-(3-chloro-4-(2-chloro-3-(5-(((2-hydroxypropyl)amino)methyl)-6-methoxypyridin-2-yl)phenyl)pyridin-2-yl)-8-methoxy-3,4-dihydroisoquinolin-2(1H)-yl)propanoate]",88.2
7,"COC(=O)CCN1CCc2cc(-c3nccc(-c4cccc(-c5ccc(CN6CC7(CNC(=O)C7)C6)c(OC)n5)c4Cl)c3Cl)cc(OC)c2C1 [Example 273, Methyl 3-(6-(3-chloro-4-(2-chloro-3-(6-methoxy-5-((7-oxo-2,6-diazaspiro[3.4]octan-2-yl)methyl)pyridin-2-yl)phenyl)pyridin-2-yl)-8-methoxy-3,4-dihydroisoquinolin-2(1H)-yl)propanoate]",116
8,"COc1cc(-c2nccc(-c3cccc(-c4ccc(CNC[C@H](C)O)c(OC)n4)c3Cl)c2C)ccc1CNC[C@H](C)O [Example 274, (S)-1-(((6-(2-Chloro-3-(2-(4-((((S)-2-hydroxypropyl)amino)methyl)-3-methoxyphenyl)-3-methylpyridin-4-yl)-phenyl)-2-methoxypyridin-3-yl)-methyl)-amino)propan-2-ol]",114
9,"COc1cc(-c2nccc(-c3cccc(-c4ccc(CN5CC6(CNC(=O)C6)C5)c(OC)n4)c3Cl)c2F)ccc1CN1CC2(CNC(=O)C2)C1 [Example 324, 2-(4-(4-(2-chloro-3-(6-methoxy-5-((7-oxo-2,6-diazaspiro[3.4]octan-2-yl)methyl)pyridin-2-yl)phenyl)-3-fluoropyridin-2-yl)-2-methoxybenzyl)-2,6-diazaspiro[3.4]octan-7-one]",31.4
10,"COc1cc(-c2nccc(-c3cccc(-c4ccc(CNCC5CCOCC5)c(OC)n4)c3Cl)c2Cl)ccc1CNCC1CCOCC1 [Example 330, 1-(6-(2-Chloro-3-(3-chloro-2-(3-methoxy-4-((((tetrahydro-2H-pyran-4-yl)methyl)amino)methyl)phenyl)pyridin-4-yl)phenyl)-2-methoxypyridin-3-yl)-N-((tetrahydro-2H-pyran-4-yl)methyl)methanamine]",73.8
11,"CNCc1ccc(-c2nccc(-c3cccc(-c4ccc(CNC)c(OC)n4)c3Cl)c2C)cc1OC [Example 334, 1-(6-(2-Chloro-3-(2-(3-methoxy-4-((methylamino)methyl)phenyl)-3-methylpyridin-4-yl)phenyl)-2-methoxypyridin-3-yl)-N-methylmethanamine]",38.5
12,"COc1cc(-c2nccc(-c3cccc(-c4ccc(CNC[C@@H]5CCC(=O)N5)c(OC)n4)c3Cl)c2Cl)ccc1[C@H](C)N [Example 335, (S)-5-((((6-(3-(2-(4-((S)-1-Aminoethyl)-3-methoxyphenyl)-3-chloropyridin-4-yl)-2-chlorophenyl)-2-methoxypyridin-3-yl)methyl)amino)methyl)pyrrolidin-2-one]",49.8
13,"COc1nc(-c2ccnc(-c3cccc4c3CC[C@@H]4Oc3nc(OC)c(CN4CC5(CNC(=O)C5)C4)cc3C(F)(F)F)c2Cl)ccc1CN1CC2(CNC(=O)C2)C1 [Example 336, (S)-2-((3′-Chloro-6-methoxy-2′-(1-((6-methoxy-5-((7-oxo-2,6-diazaspiro[3.4]octan-2-yl)methyl)-3-(trifluoromethyl)pyridin-2-yl)oxy)-2,3-dihydro-1H-inden-4-yl)-[2,4′-bipyridin]-5-yl)methyl)-2,6-diazaspiro[3.4]octan-7-one]",95.6
14,"COc1cc(-c2nccc(-c3cccc(-c4ccc(CNC5CCN(C(=O)C6CC6)CC5)c(OC)n4)c3Cl)c2Cl)ccc1CNC1CCN(C(=O)C2CC2)CC1 [Example 345, (4-(((6-(2-Chloro-3-(3-chloro-2-(4-(((1-(cyclopropanecarbonyl)piperidin-4-yl)amino)methyl)-3-methoxyphenyl)pyridin-4-yl)phenyl)-2-methoxypyridin-3-yl)methyl)amino)piperidin-1-yl)(cyclopropyl)methanone]",32.3
15,"COc1cc(-c2nccc(-c3cccc(-c4ccc(CNC5CCN(C(=O)C(C)C)CC5)c(OC)n4)c3Cl)c2Cl)ccc1CNC1CCN(C(=O)C(C)C)CC1 [Example 346, 1-(4-(((6-(2-Chloro-3-(3-chloro-2-(4-(((1-isobutyrylpiperidin-4-yl)amino)methyl)-3-methoxyphenyl)pyridin-4-yl)phenyl)-2-methoxypyridin-3-yl)methyl)amino)piperidin-1-yl)-2-methylpropan-1-one]",70.5
16,"COc1cc(-c2nccc(-c3cccc(-c4ccc(CNC5CCN(C(=O)C(C)C)CC5)c(OC)n4)c3Cl)c2Cl)cc(F)c1CNC1CCN(C(=O)C(C)C)CC1 [Example 347, 1-(4-(((6-(2-Chloro-3-(3-chloro-2-(3-fluoro-4-(((1-isobutyrylpiperidin-4-yl)amino)methyl)-5-methoxyphenyl)pyridin-4-yl)phenyl)-2-methoxypyridin-3-yl)methyl)amino)piperidin-1-yl)-2-methylpropan-1-one]",69.6
